This passage reports IC50 results from US11530206B2, “Phenylaminopyrimidine amide autophagy inhibitors and methods of use thereof” (Deciphera Pharmaceuticals, LLC, priority 2019, dated 2022).

The structures appear in SMILES notation. Bounds are passed on as bounds.

In assay [1] the target is T1, ULK1 kinase (Homo sapiens, UniProt O75385, E37A/K38A).
T1 construct: purchased Beryllium
T1 sequence (O75385 1-283 E37A/K38A): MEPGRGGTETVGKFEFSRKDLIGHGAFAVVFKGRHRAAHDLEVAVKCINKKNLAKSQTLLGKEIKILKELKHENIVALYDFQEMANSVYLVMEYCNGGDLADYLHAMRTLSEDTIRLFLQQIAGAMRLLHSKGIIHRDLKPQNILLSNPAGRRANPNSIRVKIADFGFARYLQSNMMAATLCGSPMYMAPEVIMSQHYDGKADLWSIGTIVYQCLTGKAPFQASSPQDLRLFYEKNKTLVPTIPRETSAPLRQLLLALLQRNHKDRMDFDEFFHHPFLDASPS
Kind of assay: Biochemical assay for ULK1.3 (coupled pyruvate kinase/lactate dehydrogenase assay, peptide substrate). The settings on record: 0.1 nM ULK1 (residues 1-283), 1 mM ATP. Here is the method: Biochemical Assay for ULK1.3 (SEQ. ID NO: 2)
Inhibition of ULK1 was measured by adding serial diluted test compound (final assay concentration of 1% DMSO). A decrease in absorption at 340 nm was monitored continuously for 6 hours at 30° C. on a multi-mode microplate reader (BioTek). The reaction rate was calculated using the 2-3 h time frame. The reaction rate at each concentration of compound was converted to percent inhibition using controls (i.e. reaction with no test compound and reaction with a known inhibitor) and IC50 values were calculated using software routines in Prism (GraphPad software).

For assay [2], the system named is ULK kinase. The experiment in a line: pATG13 levels of mutant KRas A549 cells after treatment with ULK inhibitors in combination with trametinib (ELISA). In kind it is cell-based, human. The conditions noted are these: A549 (KRAS mutant) lung cancer cells, 250 nM trametinib, overnight, pS318-ATG13. Here is the method:
Cellular Inhibition of ULK Kinase Substrate ATG13 Protein pATG13 Levels of Mutant KRas A549 Cells after Treatment with ULK Inhibitors in Combination with Trametinib
(§1) A549 (KRAS mutant) human lung cancer cells (6,000 cells/well) were added to a 384-well tissue-culture treated plate in 50 μL of pre-warmed DMEM medium supplemented with 10% characterized fetal bovine serum (Invitrogen, Carlsbad, Calif.), 100 units/mL penicillin G, and 100 μg/mL streptomycin and allowed to grow overnight at 37° C., 5% CO2, and 95% humidity. The following day, 10 μL of media containing trametinib or DMSO as a control was added to wells. […] A dose response of a test compound (0.6 μL per well) was added. DMSO (0.6 μL) was added to control wells. The plate was briefly shaken to mix wells and then incubated at 37° C. overnight. The next day, the media was aspirated and cells were washed with Dulbecco's Phosphate Buffered Saline (Gibco). Cells were lysed using MPER lysis buffer (Pierce, Rockford, Ill.) containing Halt Phosphatase and Protease Inhibitors (Pierce, Rockford, Ill.) and Phosphatase inhibitor cocktail 2 (Sigma, St. Louis, Mo.) at 4° C. for 10 minutes with shaking.
(§2) Plate wells were washed with ELISA wash buffer. Cell lysate was added to wells and incubated at room temperature for 2 hours. Plate wells were washed with ELISA wash buffer. […] Plate wells were washed with ELISA wash buffer. […] Plate wells were washed with ELISA wash buffer. […] The reaction was stopped with 2N Sulfuric Acid. The plate was analyzed at on a plate reader measuring absorbance at 450 nm and 540 nm (background). Signal was calculated by first subtracting the background absorbance at 540 nm from the absorbance at 450 nm for each well. Next, the background corrected absorbance at 450 nm from blank wells was subtracted from test wells. Data was compared to control wells to determine % ATG13 phosphorylation. GraphPad Prism was used to calculate IC50 values.
A general note: ELISA stands for enzyme-linked immunosorbent assay.

Assay [3] relates to ULK kinase. Kind of assay: pATG13 levels of mutant KRas MiaPaCa-2 cells after treatment with ULK inhibitors in combination with trametinib (ELISA). The conditions noted are these: MiaPaCa-2 pancreatic cancer cells, 250 nM trametinib, overnight, pS318-ATG13. In kind it is cell-based, human. As to the method: as §1, with “MiaPaCa-2” for “A549 (KRAS mutant)”, “pancreatic” for “lung”, “(10000” for “(6,000”, “G, 100 µg/mL streptomycin,” for “G,”, “2.5% Horse Serum” for “100 μg/mL streptomycin”
as §2

In assay [4] the target is T2, LRRK2 kinase (Homo sapiens, UniProt Q5S007).
T2 construct: purchased Thermo Fisher
The experiment in a line: Biochemical assay for LRRK2 (coupled pyruvate kinase/lactate dehydrogenase assay). The settings on record: 26.4 nM LRRK2 (residues 970-2528), peptide substrate, 1 mM ATP. As to the method: Example 138. Biochemical Assay for LRRK2 (SEQ. ID NO: 4)
Activity of LRRK2 kinase was determined spectroscopically using a coupled pyruvate kinase/lactate dehydrogenase assay that continuously monitors the ATP hydrolysis-dependent oxidation of NADH (e.g., Schindler et al. Science (2000) 289: 1938-1942). Assays were conducted in 384-well plates (100 μL final volume) using 26.4 nM LRRK2 (Thermo Fisher), 0.1 mM peptide substrate ([…] (SEQ ID NO: 6)), 1.5 units pyruvate kinase, 2.1 units lactate dehydrogenase, 1 mM phosphoenol pyruvate, 0.28 mM NADH and 1 mM ATP in assay buffer (100 mM Tris, pH 7.5, 15 mM MgCl2, 0.5 mM DTT, 0.004% (w/v) BSA, and 0.004% Triton X-100). Inhibition of LRRK2 was measured by adding serial diluted test compound (final assay concentration of 1% DMSO). A decrease in absorption at 340 nm was monitored continuously for 6 hours at 30° C. on a multi-mode microplate reader (BioTek). The reaction rate was calculated using the 2-3 h time frame. The reaction rate at each concentration of compound was converted to percent inhibition using controls (i.e. reaction with no test compound and reaction with a known inhibitor) and IC50 values were calculated using software routines in Prism (GraphPad software).

T2 sequence (Q5S007 with tags, fused parts or gaps): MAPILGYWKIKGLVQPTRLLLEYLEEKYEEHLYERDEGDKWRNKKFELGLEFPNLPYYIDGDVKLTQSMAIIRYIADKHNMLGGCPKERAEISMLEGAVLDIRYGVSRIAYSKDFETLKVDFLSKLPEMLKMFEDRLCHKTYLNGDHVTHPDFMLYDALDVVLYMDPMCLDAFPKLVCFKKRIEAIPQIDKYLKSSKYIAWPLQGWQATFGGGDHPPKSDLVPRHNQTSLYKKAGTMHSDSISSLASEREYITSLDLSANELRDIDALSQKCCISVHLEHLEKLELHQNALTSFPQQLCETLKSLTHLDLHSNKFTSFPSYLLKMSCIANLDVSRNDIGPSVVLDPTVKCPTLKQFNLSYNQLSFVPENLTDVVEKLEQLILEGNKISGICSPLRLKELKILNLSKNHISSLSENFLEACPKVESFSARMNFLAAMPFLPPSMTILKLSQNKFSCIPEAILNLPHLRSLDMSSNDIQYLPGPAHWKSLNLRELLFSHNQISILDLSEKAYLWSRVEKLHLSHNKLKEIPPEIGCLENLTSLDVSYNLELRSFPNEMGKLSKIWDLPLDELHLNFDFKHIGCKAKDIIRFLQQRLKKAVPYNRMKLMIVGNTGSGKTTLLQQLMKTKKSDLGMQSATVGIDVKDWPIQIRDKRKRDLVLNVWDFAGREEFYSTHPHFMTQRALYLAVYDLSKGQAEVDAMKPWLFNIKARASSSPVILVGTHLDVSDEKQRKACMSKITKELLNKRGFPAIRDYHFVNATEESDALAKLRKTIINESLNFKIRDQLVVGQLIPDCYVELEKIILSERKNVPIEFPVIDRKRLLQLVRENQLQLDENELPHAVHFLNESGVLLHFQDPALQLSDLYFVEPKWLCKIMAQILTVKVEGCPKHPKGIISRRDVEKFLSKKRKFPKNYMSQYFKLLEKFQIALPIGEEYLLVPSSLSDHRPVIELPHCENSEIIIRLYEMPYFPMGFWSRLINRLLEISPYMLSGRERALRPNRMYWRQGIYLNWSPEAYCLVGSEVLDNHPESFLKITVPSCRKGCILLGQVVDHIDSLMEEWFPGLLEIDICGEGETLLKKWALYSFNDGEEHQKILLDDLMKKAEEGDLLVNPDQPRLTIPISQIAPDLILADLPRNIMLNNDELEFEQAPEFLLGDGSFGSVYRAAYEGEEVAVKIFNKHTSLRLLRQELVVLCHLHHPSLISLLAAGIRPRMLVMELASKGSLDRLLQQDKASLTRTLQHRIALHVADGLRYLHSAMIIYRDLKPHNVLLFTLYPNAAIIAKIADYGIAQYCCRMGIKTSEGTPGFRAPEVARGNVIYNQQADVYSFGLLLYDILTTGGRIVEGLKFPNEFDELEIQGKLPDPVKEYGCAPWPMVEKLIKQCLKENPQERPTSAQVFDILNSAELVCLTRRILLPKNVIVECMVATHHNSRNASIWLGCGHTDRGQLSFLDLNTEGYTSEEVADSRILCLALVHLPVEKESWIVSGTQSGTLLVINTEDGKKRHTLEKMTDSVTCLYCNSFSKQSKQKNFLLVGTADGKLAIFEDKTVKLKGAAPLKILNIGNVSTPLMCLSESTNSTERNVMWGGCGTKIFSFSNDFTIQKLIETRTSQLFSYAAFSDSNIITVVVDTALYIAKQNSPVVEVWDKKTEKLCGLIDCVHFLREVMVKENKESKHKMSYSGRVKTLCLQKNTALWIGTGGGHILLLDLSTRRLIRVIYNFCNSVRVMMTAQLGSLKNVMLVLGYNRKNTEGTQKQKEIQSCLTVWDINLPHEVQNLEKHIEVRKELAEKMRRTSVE

What is called IC50 is the concentration that inhibits the measured activity by half. As to `CN1CCN(c2cc(C3CC3)c(Nc3ncc(C(F)(F)F)c(NCCCN4CCCCC4=O)n3)cc2F)CC1` [Example 35], the 50% inhibitory concentration (IC50) lay in the range of 0.025 to 0.1 µM in assay [1], 0.1 to 0.3 µM in assay [2], 0.1 to 0.3 µM in assay [3] and 0.001 to 0.1 µM in assay [4].

Consider `CCc1cc(N2CC3CCC(C2)N3C)ccc1Nc1ncc(C(F)(F)F)c(NCCCN2CCCCC2=O)n1` [Example 68], for which the IC50 in assay [1] is 0.001 to 0.025 µM; in assay [2], 0.01 to 0.1 µM; in assay [3], 0.01 to 0.1 µM; in assay [4] it was 0.1 to 0.3 µM.

Turning to `CCc1cc(N2CCCN(C)CC2)ccc1Nc1ncc(C(F)(F)F)c(NCCCN2CCOCCC2=O)n1` [Example 79], the IC50 in assay [1] was 0.001 to 0.025 µM; in assay [2], 0.1 to 0.3 µM; in assay [3] it was 0.01 to 0.1 µM; in assay [4], 0.1 to 0.3 µM.

As to `CC(C)c1cc(N2CCN(C)CC2)ccc1Nc1ncc(Br)c(NCCCN2CCOCCC2=O)n1` [Example 87], the IC50 in assay [1] is 0.025 to 0.1 µM; in assay [2] it was 0.3 to 0.6 µM; in assay [3], 0.3 to 0.6 µM; in assay [4] it was 0.3 to 0.6 µM.

In the case of `CCc1cc(N2CCN(C)CC2)ccc1Nc1cc(NCCCN2CCOCCC2=O)c(C(F)(F)F)cn1` [Example 92], the concentration for half-maximal inhibition (IC50) in assay [1] is 0.001 to 0.025 µM; in assay [2], 0.3 to 0.6 µM; in assay [3] it was 0.1 to 0.3 µM; in assay [4], greater than 0.6 µM.

Turning to `O=C1CCOCCN1CCCNc1nc(Nc2ccc(N3CCN4CCC[C@@H]4C3)cc2C2CC2)ncc1C(F)(F)F` [Example 107], the IC50 in assay [1] lay within 0.001 to 0.025 µM; in assay [2], 0.01 to 0.1 µM; in assay [3], 0.01 to 0.1 µM; in assay [4] it was 0.1 to 0.3 µM.

`CN1CCN(c2ccc(Nc3ncc(C(F)(F)F)c(NCCCN4CCOCCC4=O)n3)c(C3CCCC3)c2)CC1` [Example 112]: the IC50 in assay [1] lay within 0.001 to 0.025 µM; in assay [2], 0.1 to 0.3 µM; in assay [3] it was 0.1 to 0.3 µM; in assay [4] it was 0.1 to 0.3 µM.

For `CN1C[C@@H]2C[C@H]1CN2c1ccc(Nc2ncc(C(F)(F)F)c(NCCCN3CCOCCC3=O)n2)c(C2CC2)c1` [Example 116], the IC50 lay in the range of 0.025 to 0.1 µM in assay [1], 0.1 to 0.3 µM in assay [2], 0.01 to 0.1 µM in assay [3] and 0.001 to 0.1 µM in assay [4].

On to `CN1C[C@@H]2C[C@H]1CN2c1ccc(Nc2ncc(C(F)(F)F)c(NCCCN3CCCOC3=O)n2)c(C2CC2)c1` [Example 117], for which the IC50 was 0.025 to 0.1 µM in assay [1], 0.1 to 0.3 µM in assay [2], 0.01 to 0.1 µM in assay [3] and 0.001 to 0.1 µM in assay [4].

`CCc1cc(N2C[C@@H]3C[C@H]2CN3C)ccc1Nc1ncc(C(F)(F)F)c(NCCCN2CCOCCC2=O)n1` [Example 119]: the half-inhibitory concentration (IC50) lay within 0.001 to 0.025 µM in assay [1], 0.1 to 0.3 µM in assay [2], 0.01 to 0.1 µM in assay [3] and 0.1 to 0.3 µM in assay [4].

Turning to `CCc1cc(N2C[C@@H]3C[C@H]2CN3C)ccc1Nc1ncc(C(F)(F)F)c(NCCCN2CCCOC2=O)n1` [Example 120], the half-maximal inhibitory concentration (IC50) in assay [1] lay within 0.001 to 0.025 µM; in assay [2], 0.1 to 0.3 µM; in assay [3], 0.1 to 0.3 µM; in assay [4] it was 0.1 to 0.3 µM.

`CCc1cc(N2CCN3CCC[C@H]3C2)ccc1Nc1ncc(C(F)(F)F)c(NCCCN2CCOCCC2=O)n1` [Example 122]: the IC50 was 0.001 to 0.025 µM in assay [1], 0.3 to 0.6 µM in assay [2], 0.1 to 0.3 µM in assay [3] and 0.001 to 0.1 µM in assay [4].

With `CCc1cc(N2C[C@H]3C[C@@H]2CN3C)ccc1Nc1ncc(C(F)(F)F)c(NCCCN2CCOCCC2=O)n1` [Example 124], the IC50 lay in the range of 0.001 to 0.025 µM in assay [1], 0.01 to 0.1 µM in assay [2], 0.01 to 0.1 µM in assay [3] and 0.1 to 0.3 µM in assay [4].

For the molecule `CN1C[C@H]2C[C@@H]1CN2c1ccc(Nc2ncc(C(F)(F)F)c(NCCCN3CCOCCC3=O)n2)c(C2CC2)c1` [Example 125], the IC50 in assay [1] fell in the range of 0.001 to 0.025 µM; in assay [2], 0.01 to 0.1 µM; in assay [3], 0.01 to 0.1 µM; in assay [4] it was 0.001 to 0.1 µM.

For the molecule `CN(C)C1CN(c2ccc(Nc3ncc(C(F)(F)F)c(NCCCN4CCCCC4=O)n3)c(C3CC3)c2)C1` [Example 126], the IC50 is 0.001 to 0.025 µM in assay [1], 0.1 to 0.3 µM in assay [2], 0.01 to 0.1 µM in assay [3] and 0.001 to 0.1 µM in assay [4].

Take `COCc1cc(N2CCN(C)CC2)ccc1Nc1ncc(C(F)(F)F)c(NCCCN2CCOCCC2=O)n1` [Example 127]: the IC50 in assay [1] lay in the range of 0.001 to 0.025 µM; in assay [2] it was 0.1 to 0.3 µM; in assay [3], 0.1 to 0.3 µM; in assay [4], 0.3 to 0.6 µM.

As to `CCc1cc(N2CCN(C)CC2)ccc1Nc1ncc(C#N)c(NCCCN2CCOCCC2=O)n1` [Example 129], the IC50 in assay [1] was 0.025 to 0.1 µM; in assay [2] it was 0.3 to 0.6 µM; in assay [3], 0.1 to 0.3 µM; in assay [4] it was greater than 0.6 µM.

Turning to `CN1CCN(c2ccc(Nc3ncc(C(F)(F)F)c(NCCCN4CCOCCC4=O)n3)c(Br)c2)CC1` [Example 131], the IC50 in assay [1] is 0.001 to 0.025 µM; in assay [2] it was 0.1 to 0.3 µM; in assay [3] it was 0.3 to 0.6 µM; in assay [4], 0.1 to 0.3 µM.

With `CN1CCN(c2ccc(Nc3ncc(C(F)(F)F)c(NCCCN4CCOCCC4=O)n3)c(Cl)c2)CC1` [Example 132], the IC50 in assay [1] lay in the range of 0.001 to 0.025 µM; in assay [2] it was 0.1 to 0.3 µM; in assay [3] it was 0.01 to 0.1 µM; in assay [4] it was 0.001 to 0.1 µM.

Regarding `COCc1cc(N2CCN(C)CC2)ccc1Nc1ncc(C(F)(F)F)c(NCCCN2CCCOC2=O)n1` [Example 147], the IC50 in assay [1] lay in the range of 0.001 to 0.025 µM; in assay [2], 0.1 to 0.3 µM; in assay [3], 0.1 to 0.3 µM; in assay [4], 0.3 to 0.6 µM.

Turning to `CN1CCN(c2ccc(Nc3ncc(C(F)(F)F)c(NCCCN4CCC(C)(C)OC4=O)n3)c(C3CC3)c2)CC1` [Example 148], the IC50 in assay [1] lay in the range of 0.001 to 0.025 µM; in assay [2], 0.01 to 0.1 µM; in assay [3] it was 0.01 to 0.1 µM; in assay [4] it was 0.1 to 0.3 µM.
